According to PubChem BioAssay AID651890 (Broad Institute, 2012):

Test system: T. cruzi Tulahuen amastigotes in L-6 cells, CPRG absorbance
Experiment: intracellular Chagas parasite inhibition in myoblasts – Tulahuen strain, L-6 host cells, dry powder, dose response (AID 651890)

## C[C@@H]1CN([C@@H](C)CO)C(=O)c2cccc(NC(=O)c3ccncc3)c2O[C@H]1CN(C)Cc1ccc(Oc2ccccc2)cc1
  IC50: 39 nM
